Row | SMILES | melting point [°C]
1 | COC(=O)c1ccc(C(=O)Oc2ccc([Si](C)(C)C)cc2C(C)=O)cc1 | 88.5 to 90.5
2 | NC(=O)Oc1ccccc1-c1nc2ccc(OCc3c(F)cccc3F)cc2s1 | 216
3 | Cc1c(CN2CCc3c(c4cccc(F)c4n3C)C2=O)ncn1C | 174 to 175
4 | O=C(c1ccc(O)cc1)c1cccc2[nH]ccc12 | 177
5 | CN(C)C=CC(=O)c1ccc(Cl)cc1 | 78.5 to 80.5
6 | COC(=O)C1=C(C)NC(C)=C(C(=O)OCCCCCCCCCCCN2C(=O)c3ccccc3C2=O)C1c1cccc([N+](=O)[O-])c1 (stereo not given) | 130 to 132
7 | Cc1cc(C)c(F)cc1F | 30 to 31
8 | O=C(Nc1cn(C2CCCCO2)nc1C(=O)NCCC(F)(F)F)c1ccccn1 (stereo not given) | 144 to 145
9 | O=C(NC1CCCN(Cc2ccccc2)C1)c1ccc2[nH]ncc2c1 (stereo not given) | 203 to 204
10 | Clc1cccc(Nc2ncnc3[nH]nc(NCc4ccc(-c5ccccc5)cc4)c23)c1 | 250 to 252
11 | CC(C)(C)c1ccc(N(c2ccc(-c3ccc(Nc4ccccc4)cc3)cc2)c2ccc(C(C)(C)C)cc2)cc1 | 161 to 162
12 | C[C@H](N)C(=O)Nn1cccc1 | 63 to 66
13 | CC(C)(C)OC(=O)c1ncn2c1[C@@H]1CCCN1C(=O)c1c-2ccc(N)c1Br | 245 to 246
14 | OC1CCCNC1CN1CCCC1 (stereo not given) | 45 to 50
15 | Cn1cc(C(=O)O)c(=O)c2cc(F)c(-n3cccc3)cc21 | 284 to 285
16 | O=C(O)c1cccc(Cc2c[nH]cn2)c1O | 245 to 252
17 | Ic1ccc2c(c1)ncn2-c1cccc(-c2cncnc2)c1 | 197 to 199
18 | COC(=O)C1(O)CC(O[Si](C)(C)C(C)(C)C)C(O)C(O[Si](C)(C)C(C)(C)C)C1 (stereo not given) | 82 to 82.5
19 | Cc1c(C)c([N+](=O)[O-])c(C)c2c1OC(C)(C)C2c1ccc(C(C)C)cc1 (stereo not given) | 109 to 110
20 | Cn1c(COc2ccc(CC3SC(=O)NC3=O)cc2)nc2ccc(Oc3ccc(NC(=O)Nc4ccccc4)cc3)cc21 (stereo not given) | 164 to 168
21 | CCOC(=O)c1cn(-c2nccs2)c2c(F)c(F)c(F)cc2c1=O | 172 to 174
22 | N#Cc1c(SSc2cn(-c3c(Cl)cc(C(F)(F)F)cc3Cl)c(Cl)c2C#N)cn(-c2c(Cl)cc(C(F)(F)F)cc2Cl)c1Cl | 220
23 | CNC(=O)Cn1c(-c2ccc([N+](=O)[O-])cc2)nc2cccnc21 | > 260
24 | CCCn1c(=O)c(/C=C/C(=O)OCC)c2n(c1=O)CCS2 | 140 to 141

Row | SMILES | melting point [°C]
25 | C(=CCN(c1ccccc1)c1ccccc1)CN(c1ccccc1)c1ccccc1 | 105 to 107
26 | COc1ccc(C#N)cc1/C=C/C(=O)N[C@H](CO)CN1CCC(C(=O)c2ccc(Cl)cc2)CC1 | 162 to 163
27 | O=C(NOCC(O)CN1CCCCC1)Nc1cccc(Cl)c1 (stereo not given) | 117 to 118
28 | O=C(NC1CCN(C(=O)OCCC2(C(=O)NCC(F)(F)F)c3ccccc3-c3ccccc32)CC1)c1ccccc1Oc1ccccc1 | 68 to 73
29 | COC(=O)CCn1c(C(=O)OCc2ccccc2)cc2c(C)c(C)c(OC)cc21 | 198
30 | O=C(Nc1ccccc1[N+](=O)[O-])c1ccc(-n2nc(C(F)(F)F)cc2C(F)(F)F)cc1 | 173 to 175
31 | COC(=O)c1ccc2c(Br)nn(C)c2c1 | 122 to 125
32 | CCOC(=O)c1csnc1-c1ccc(C(F)(F)F)cc1 | 63 to 64
33 | CC(=S)NC[C@H]1CN(c2ccc(N3CCN(c4nnc(C)s4)CC3)c(F)c2)C(=O)O1 | 222 to 223
34 | Cc1ccc(N2N=C3c4cc(C(C)O)sc4CCC3CC2=O)cc1 (stereo not given) | 129 to 145
35 | Cc1cn(S(C)(=O)=O)c2c1C(=O)CC(c1ccccc1F)C2 (stereo not given) | 130 to 134
36 | CN(C)c1ccc(C(=O)c2ccccc2)cc1NC(=O)c1ccn2c1CSC2c1cccnc1 (stereo not given) | 186
37 | O=C(c1ccccc1CBr)c1ccccc1CBr | 113 to 114
38 | Cc1onc(-c2ccccc2)c1COc1ccc(-c2cc(O)c(SCCc3ccccc3)c(=O)o2)cc1 | 126 to 128
39 | COc1ccc(SC2CC(=O)N2CC(=O)NCCCCCCc2ccc(Cl)cc2)cc1 (stereo not given) | 84 to 86
40 | CC(C)(COC(=O)c1ccccc1)c1cc(OS(C)(=O)=O)ccc1OC(=O)c1ccccc1 | 100 to 101
41 | NC(=O)c1nc(-c2cccc(O)c2)nc2c1[nH]c(=O)n2-c1ccc(Cl)cc1Cl | 375 to 377
42 | CC(=O)N1CCC(C(=O)Nc2ccccc2Oc2ccc(Cl)cc2)CC1 | 195 to 196
43 | Cc1ccc(S(=O)(=O)OCC2CC(OS(=O)(=O)c3ccc(C)cc3)CN2S(=O)(=O)c2ccc(C)cc2)cc1 (stereo not given) | 134 to 135
44 | CC(C)(C)OC(=O)CCC(CCC(=O)OC(C)(C)C)(CCC(=O)OC(C)(C)C)NC(=O)C=C=C[N+](=O)[O-] | 140 to 141
45 | CCOC(=O)/C(C)=C(/C)c1cn(C(c2ccccc2)(c2ccccc2)c2ccccc2)cn1 | 166 to 168
46 | CCc1nccc(NC2COC(c3ccccc3)OC2)c1Cl (stereo not given) | 119 to 120
47 | CC(C)(C)C1=NN(c2ccc(C(=O)O)cc2)C(c2cccc(F)c2)C1 (stereo not given) | 218
48 | CN1CCN(c2ccc3cc(Cl)ccc3n2)CC1 | 141 to 142

Row | SMILES | melting point [°C]
49 | CCCN1CCCC2CC3=C(CCC(=O)N3)CC21 (stereo not given) | 183 to 184
50 | O=c1c(-c2ccccc2)cc(Cl)c2n1CCSc1ccsc1-2 | 179
51 | Cc1ccccc1C(CCC(=O)O)Oc1cc(OCc2cccnc2)ccc1C(=O)c1ccccc1 (stereo not given) | 185 to 186
52 | c1ccc2c(c1)SCCc1c-2n(CCCN2CCCCC2)c2ccccc12 | 84 to 87
53 | CCC1(C)C(=O)N=C(SCc2ccccc2N(C)C)N1C(C)=O (stereo not given) | 83 to 85
54 | Cc1nn(-c2ccccn2)c2[nH]c3cc(F)c(F)cc3c(=O)c12 | 274 to 277
55 | COC(=O)c1ccc(O)c(I)c1 | 145 to 146
56 | O=[N+]([O-])c1ccc2c(c1)NP(=O)(N(CCCl)CCCl)OC2 (stereo not given) | 138 to 142
57 | CC1OC(=S)Nc2ccc(-c3cccc(F)c3)cc21 (stereo not given) | 173 to 174
58 | COC(=O)CCOc1ccc(CNC(=O)[C@@H]2Cc3ccccc3N2S(=O)(=O)c2ccc(C(C)(C)C)cc2)cc1 | 50 to 52
59 | Cc1ccc(S(=O)(=O)OCC2(CO)OC(n3ccc(=O)[nH]c3=O)C(O)C2O)cc1 (stereo not given) | 119 to 120
60 | O=C(O)CCC/C=C\C[C@H]1[C@@H]2CC[C@@H](C2)[C@@H]1NC(=O)c1ccc(S(=O)(=O)n2cccc2)s1 | 113 to 114
61 | CCn1nnnc1Cc1ccc(NC(=O)/C=C/c2cnn(C)c2-c2ccc(F)cc2)cc1 | 206 to 207
62 | Cc1nn(-c2ccccn2)c2[nH]c3c(c(=O)c12)CCCC3 | 172 to 173
63 | CN1CCN(C(=O)CN2CCN(C(=O)c3cc(C(F)(F)F)cc(C(F)(F)F)c3)[C@H](Cc3c[nH]c4ccccc34)C2)CC1 | 105 to 108
64 | Cc1ncn(C(=O)Nc2ccccc2)c1Cl | 112 to 114
65 | COc1ccc(C2=NN(Cc3ccccn3)C(=O)[C@H]3CC=CC[C@@H]23)cc1OC (relative stereo) | 146 to 147
66 | CC(=O)c1cc2c(s1)CCCC1CC(=O)N(c3ccc(Cl)cc3)N=C21 (stereo not given) | 128 to 130
67 | COCCNC(=O)c1cc(-c2cccc3cc(Cc4cccc(C(F)(F)F)c4)sc23)ccc1F | 94 to 95
68 | CC(CCC(=O)NC(C)(C)CO)C1CCC2C3C(=O)CC4CC(O)CCC4(C)C3CC(O)C12C (stereo not given) | 229 to 231
69 | Cc1nnc2ccc(-c3cccc(NC=O)c3)nn12 | 265 to 268
70 | O=C(Nc1ccc(C(=O)N2Cc3ccccc3Sc3ccccc32)cc1)c1ccccc1Cl | 116 to 119
71 | CCOC(=O)c1cc(N)nn1C | 57 to 58
72 | O=C(NCCC(=O)N1CCCC1)c1ccc(-c2ccc3nnn(Cc4ccc5ncccc5c4)c3n2)cc1F | 151 to 153

Row | SMILES | melting point [°C]
73 | CS(=O)(=O)NC1(c2ccc(I)cc2)CC1 | 101 to 102
74 | Fc1cccc(F)c1Cn1c(-c2ccccc2)nc2ccccc21 | 163
75 | Cc1cc2c(-c3ccccc3N)nc(N3CCNCC3)nc2s1 | 232 to 236
76 | CCCCn1c2c(c3cc(OC)c(OC)cc3c1=O)C(=O)c1cc3c(cc1-2)OCO3 | 280 to 284
77 | COCCOc1ccnc2c(NC(=O)c3c(Cl)cccc3Cl)cccc12 | 150 to 152
78 | CCCCCNC(=O)c1cc(N2CCN(C(=O)c3ccccc3C(F)(F)F)CC2)nn1C(=O)OCc1ccccc1 | 58 to 61
79 | CC(C)n1nc(-c2c(-c3ccccc3)nn3ccc(C(=O)NCCN(C)C)cc23)ccc1=O | 157 to 158
80 | FCCOc1ccc(COCOc2ccc(Cl)cc2)cc1 | 60.7 to 61.6
81 | N#Cc1nn(-c2c(Cl)cc(C(F)(F)F)cc2Cl)c(N)c1-c1onc(Br)c1Br | 279
82 | COc1ccccc1Sc1c(O)c2c(Cl)cc(Cl)cc2[nH]c1=O | 269 to 270
83 | NS(=O)(=O)c1ccc(-n2nc(C(F)(F)F)cc2-c2ccc(-c3ccco3)cc2)cn1 | 140 to 170
84 | CCC(=O)CN1C(=O)C(NC(=O)Nc2cccc(C)c2)N=C(C)c2cccc(C)c21 (stereo not given) | 125 to 128
85 | CC(C)(C)c1cc(-c2nnc(SCC(=O)O)s2)cc(C(C)(C)C)c1O | 188
86 | Cc1ccc(Oc2ccc(-c3cccs3)cc2O)c(O)c1 | 91 to 92
87 | C=CCOc1cc(C(=O)O)cc(S(C)(=O)=O)c1OCC=C | 163
88 | COC(=O)C[C@H](O)CC(=O)C=Cc1c(-c2ccc(F)cc2)c(-c2ccc(F)cc2)c(C(=O)NCc2cccc(OC)c2)n1C(C)C | 104 to 116
89 | CCn1cc(C(=O)O)c(=O)c2ccc(-n3cccc3)cc21 | 235 to 238
90 | Fc1ccc2c(c1)C(=C1SCCCS1)CCO2 | 47 to 49
91 | N#Cc1cccc(-c2nc(-c3ccc(C(=O)O)cc3)cc3cccnc23)c1 | > 300
92 | Cc1cc(Oc2ccc(S(C)(=O)=O)nc2)cc2cc(C3=NCC(CC(=O)NC[C@@H](C)O)S3)[nH]c12 (stereo not given in full) | 168 to 169
93 | CC1C(=O)Oc2cc(N3CCOCC3)c(Cl)cc21 (stereo not given) | 103 to 105
94 | NS(=O)(=O)c1cc2[nH]c(CCCCc3ccccc3)nc2cc1Cl | 176 to 180
95 | N#CCOc1cccc2c1c1cccc(F)c1n2Cc1ccccc1 | 134
